US10696693B2, “Fused imidazole derivatives as TGF-beta inhibitors” (Rigel Pharmaceuticals, Inc., priority 2014, dated 2020)
Read-outs that look alike come from different tables or passages of the source.

Tests used:
TGF-β = assay: AlphaScreen SureFire p-SMAD3 (Ser423/425) assay, TGF-β-stimulated cells; assay type: cell-based; conditions: Mus musculus
From the text: (§1) The p-SMAD-3 (Ser423/425) SureFire® assay has been designed to measure the phosphorylation of endogenous cellular p-SMAD-3 (Ser423/425) in cell lysates and is a system for the screening of both modulators of receptor activation (e.g. agonists and antagonists) as well as agents acting intracellularly, such as small molecule inhibitors of upstream events. The assay will measure p-SMAD-3 (Ser423/425) activation by either cloned or endogenous receptors, and can be applied to primary cells.
(§2) 96-well Assay Protocol for 293FT and RMS13 adherent cells can be carried out manually or in high throughput with liquid handling robots.
(§3) The cells (80 μL of cells for 96 well plates) were plated in collagen coated tissue culture plates in RPMI or FreeStyle medium (Invitrogen) and incubated overnight. For manual analysis, 6 plates for GDF8, 6 plates for TGFβ, and optionally 6 plates for Alk5ca(ALK5 constitutively active) were used.
(§4) The compound dilution plates were prepared as follows: 12 μL of DMSO was transferred into first column of 96-well plate, and 16 μL of DMSO was transferred into columns 2-12 of the 96-well plate. 12 μL of compound solution was transferred into first column of the DMSO-containing 96-well plate. Three-fold dilution was performed up to column 10 of the DMSO-containing 96-well plate.
(§5) The plate containing cells were treated with compounds for about 10 minutes, and then ligand was added. GDF8 or TGFb was added to plates to stimulate. 293FL cells were stimulatedfor 90 minutes at 37° C.; and RMS13 cells were stimulated for 60 minutes at 37° C. The medium was then removed from the cells, and 1× Lysis Buffer (about 25 μL) was added and the plate was gently agitated on plate shaker for 5-10 minutes.
(§6) The lysate (5 μL) was then placed into 384-well shallow plates avoiding the generation of bubbles. To this, the Reaction Buffer+Activation Buffer+AlphaScreen® Acceptor beadsmixture (5 μL) was added. The plate was sealed with adhesive cover and shielded from light (e.g., with metal foil), and agitated gently on plate shaker for 2 hours at room temperature.
(§7) Dilution buffer+AlphaScreen® Donor beads (2 μL) was then added, and the plate was intubated on the plate shaker for an additional 1½ hours. After completion, the plate was read on Synergy-4 or Enspire plate reader, using AlphaScreen® pSMAD3® settings.
(§8) Representative results for inhibition of GDF8 (data=GDF pSMAD (MPC11) (μM)) and TGF-β (data=TGF-β pSMAD (MPC-11) (μM)) signaling are shown in Table 1(A=<0.05 μM, B=0.05−<0.1 μM, C=0.1−<1.0 μM, D=>1.0 μM): […]

GDF8 = assay: AlphaScreen SureFire p-SMAD3 (Ser423/425) assay, GDF8-stimulated cells; assay type: cell-based; conditions: Mus musculus
From the text: as §1, §2, §3, §4, §5, §6, §7, §8

[1] = p-SMAD3 (Ser423/425) AlphaScreen in cell lysate, MPC-11, TGF-β stimulation, read-out: TGF-β: inhibition of TGF-β signaling, TGF-β pSMAD (MPC-11)
[2] = MPC-11, p-SMAD3 (Ser423/425) AlphaScreen in cell lysate, MPC11, GDF8 stimulation, read-out: GDF8: inhibition of GDF8 signaling, GDF pSMAD (MPC11)
[3] = MPC-11, read-out: TGF-β: inhibition of TGF-β signaling, TGF-β pSMAD (MPC-11), p-SMAD3 (Ser423/425) AlphaScreen in cell lysate, TGF-β stimulation
[4] = MPC-11, read-out: GDF8: inhibition of GDF8 signaling, GDF pSMAD (MPC11), p-SMAD3 (Ser423/425) AlphaScreen in cell lysate, GDF8 stimulation

Structure (SMILES) | IC50 (TGF-β; [1]) | IC50 (GDF8; [2]) | IC50 (TGF-β; [3]) | IC50 (GDF8; [4])
OCC1CCC2(CC1)Cc1nc(-c3ccc(F)cc3)c(-c3ccc4nccnc4c3)n1C2 (centres unmarked) [Compound 336, (2′-(4-fluorophenyl)-3′-(quinoxalin-6-yl)-5′H,7′H-spiro[cyclohexane-1,6′-pyrrolo[1,2-a]imidazol]-4-yl)methanol] |  |  | > 1000 nM | > 1000 nM
CC(=O)N1c2nc(-c3cc(F)cc(F)c3F)c(-c3ccc4ncnn4c3)n2CC1C(=O)O (centres unmarked) [Compound 119, 5-([1,2,4]triazolo[1,5-a]pyridin-6-yl)-1-acetyl-6-(2,3,5-trifluorophenyl)-2,3-dihydro-1H-imidazo[1,2-a]imidazole-2-carboxylic acid] | < 50 nM | < 50 nM |  | 
COc1ccc(-c2nc3n(c2-c2ccc4ncccc4c2)CCC3)cc1 [Compound 352, 6-(2-(4-methoxyphenyl)-6,7-dihydro-5H-pyrrolo[1,2-a]imidazol-3-yl)quinoline] |  |  | > 1000 nM | > 1000 nM
Cc1cc(F)c(Cl)cc1-c1nc2n(c1-c1ccc3ncccc3c1)CCC2 [Compound 299, 6-(2-(5-chloro-4-fluoro-2-methylphenyl)-6,7-dihydro-5H-pyrrolo[1,2-a]imidazol-3-yl)quinoline] |  |  | > 1000 nM | 100 to 1000 nM
Cc1cc(-c2nc3n(c2-c2ccc4[nH]ncc4c2)CCC3)c(F)cc1F [Compound 268, 5-(2-(2,4-difluoro-5-methylphenyl)-6,7-dihydro-5H-pyrrolo[1,2-a]imidazol-3-yl)-1H-indazole] | 50 to 100 nM | < 50 nM |  | 
Cc1ccc(-c2nc3n(c2-c2ccc4nccn4c2)CCC3)c(F)c1F [Compound 27] | > 1000 nM | > 1000 nM |  | 
Fc1ccc(-c2nc3occn3c2-c2ccc3ncccc3c2)c(F)c1 [Compound 158, 5-(quinolin-6-yl)-6-(2,4-difluorophenyl)imidazo[2,1-b]oxazole] | 50 to 100 nM | < 50 nM |  | 
Cc1c(F)ccc(-c2nc3n(c2-c2ccc4ncsc4c2)CCC3)c1C [Compound 329, 6-(2-(4-fluoro-2,3-dimethylphenyl)-6,7-dihydro-5H-pyrrolo[1,2-a]imidazol-3-yl)benzo[d]thiazole] |  |  | > 1000 nM | 100 to 1000 nM
CCOC(=O)C1CCC2(CC1)Cc1nc(-c3ccc(F)cc3)c(-c3ccc4ncnn4c3)n1C2 (centres unmarked) [Compound 77, ethyl 3′-([1,2,4]triazolo[1,5-a]pyridin-6-yl)-2′-(4-fluorophenyl)-5′H,7′H-spiro[cyclohexane-1,6′-pyrrolo[1,2-a]imidazole]-4-carboxylate] |  |  | > 1000 nM | > 1000 nM
CCOC(=O)C1CCC2(CC1)Cc1nc(-c3ccc(F)cc3)c(-c3ccc4nccnc4c3)n1C2 (centres unmarked) [Compound 333, Ethyl 2′-(4-fluorophenyl)-3′-(quinoxalin-6-yl)-5′H,7′H-spiro[cyclohexane-1,6′-pyrrolo[1,2-a]imidazole]-4-carboxylate] |  |  | > 1000 nM | > 1000 nM
Fc1ccc(-c2nc3n(c2-c2ccc4ncsc4c2)CCC3)cc1 [Compound 174, 6-(2-(4-fluorophenyl)-6,7-dihydro-5H-pyrrolo[1,2-a]imidazol-3-yl)benzo[d]thiazole] |  |  | 100 to 1000 nM | 50 to 100 nM
Clc1cccc(-c2nc3n(c2-c2ccc4ncsc4c2)CCC3)c1 [Compound 191, 6-(2-(3-chlorophenyl)-6,7-dihydro-5H-pyrrolo[1,2-a]imidazol-3-yl)benzo[d]thiazole] |  |  | 100 to 1000 nM | < 50 nM
Fc1ccccc1-c1nc2n(c1-c1ccc3cn[nH]c3c1)CCC2 [Compound 198, 6-(2-(2-fluorophenyl)-6,7-dihydro-5H-pyrrolo[1,2-a]imidazol-3-yl)-1H-indazole] | > 1000 nM | > 1000 nM |  | 
Fc1cc(-c2nc3n(c2-c2ccc4nccnc4c2)CCC3)cc(F)c1F [Compound 227, 6-(2-(3,4,5-trifluorophenyl)-6,7-dihydro-5H-pyrrolo[1,2-a]imidazol-3-yl)quinoxaline] | > 1000 nM | 100 to 1000 nM |  | 

Continued, in another order:

IC50 (TGF-β; [1]) | IC50 (GDF8; [2]) | Structure (SMILES) | IC50 (TGF-β; [3]) | IC50 (GDF8; [4])
> 1000 nM | > 1000 nM | CC(C)c1nnc2ccc(-c3c(-c4cc(F)c(Cl)cc4F)nc4n3CCC4)cn12 [Compound 20, 6-(2-(4-chloro-2,5-difluorophenyl)-6,7-dihydro-5H-pyrrolo[1,2-a]imidazol-3-yl)-3-isopropyl-[1,2,4]triazolo[4,3-a]pyridine] |  | 
> 1000 nM | 100 to 1000 nM | Cc1cc(F)ccc1-c1nc2n(c1-c1ccc3nccn3c1)CCC2 [Compound 55, 6-(2-(4-fluoro-2-methylphenyl)-6,7-dihydro-5H-pyrrolo[1,2-a]imidazol-3-yl)imidazo[1,2-a]pyridine] |  | 
100 to 1000 nM | 100 to 1000 nM | Fc1cc(Cl)c(-c2nc3n(c2-c2ccc4ncnn4c2)CCC3)cc1F [Compound 49, 6-(2-(2-chloro-4,5-difluorophenyl)-6,7-dihydro-5H-pyrrolo[1,2-a]imidazol-3-yl)-[1,2,4]triazolo[1,5-a]pyridine] |  | 
> 1000 nM | > 1000 nM | Fc1cc(-c2nc3n(c2-c2ccc4[nH]ncc4c2)CCC3)c(F)cc1Cl [Compound 239, 5-(2-(4-chloro-2,5-difluorophenyl)-6,7-dihydro-5H-pyrrolo[1,2-a]imidazol-3-yl)-1H-indazole] |  | 
> 1000 nM | > 1000 nM | Cc1cc(-c2nc3n(c2-c2ccc4ncnn4c2)CCC3)c(F)cc1Cl [Compound 28, 6-(2-(4-chloro-2-fluoro-5-methylphenyl)-6,7-dihydro-5H-pyrrolo[1,2-c]imidazol-3-yl)-[1,2,4]triazolo[1,5-c]pyridine] |  | 
50 to 100 nM | < 50 nM | Cc1cccc(-c2nc3occn3c2-c2ccc3ncccc3c2)c1 [Compound 144, 5-(quinolin-6-yl)-6-(m-tolyl)imidazo[2,1-b]oxazole] |  | 
> 1000 nM | 100 to 1000 nM | Fc1ccccc1-c1nc2n(c1-c1ccc3[nH]ncc3c1)CCC2 [Compound 197, 5-(2-(2-fluorophenyl)-6,7-dihydro-5H-pyrrolo[1,2-a]imidazol-3-yl)-1H-indazole] |  | 
100 to 1000 nM | 100 to 1000 nM | COCCOc1cnc2ccc(-c3c(-c4cc(F)c(F)cc4F)nc4n3CCC4)cc2n1 [Compound 353, 2-(2-methoxyethoxy)-7-(2-(2,4,5-trifluorophenyl)-6,7-dihydro-5H-pyrrolo[1,2-a]imidazol-3-yl)quinoxaline] |  | 
> 1000 nM | > 1000 nM | Fc1ccc(-c2nc3n(c2-c2ccc4nccn4c2)CC2(CCCC2)C3)cc1 [Compound 72, 2′-(4-fluorophenyl)-3′-(imidazo[1,2-a]pyridin-6-yl)-5′H,7′H-spiro[cyclopentane-1,6′-pyrrolo[1,2-a]imidazole]] |  | 
> 1000 nM | 100 to 1000 nM | Cc1cc(F)ccc1-c1nc2n(c1-c1ccc3ncnn3c1)CCC2 [Compound 54, 6-(2-(4-fluoro-2-methylphenyl)-6,7-dihydro-5H-pyrrolo[1,2-a]imidazol-3-yl)-[1,2,4]triazolo[1,5-a]pyridine] |  | 
> 1000 nM | 100 to 1000 nM | Cc1c(F)ccc(-c2nc3n(c2-c2ccc4nccn4c2)CCC3)c1C [Compound 74, 6-(2-(4-fluoro-2,3-dimethylphenyl)-6,7-dihydro-5H-pyrrolo[1,2-a]imidazol-3-yl)imidazo[1,2-a]pyridine] |  | 
> 1000 nM | 100 to 1000 nM | Fc1ccc(-c2nc3n(c2-c2ccc4nccn4c2)CCC3)cc1F [Compound 10] |  | 
> 1000 nM | 100 to 1000 nM | Cc1cc(-c2nc3n(c2-c2ccc4ncccc4c2)CCC3)c(C)cc1F [Compound 311, 6-(2-(4-fluoro-2,5-dimethylphenyl)-6,7-dihydro-5H-pyrrolo[1,2-a]imidazol-3-yl)quinoline] |  | 
> 1000 nM | > 1000 nM | CC(C)c1nnc2ccc(-c3c(-c4ccc(F)c(F)c4F)nc4n3CCC4)cn12 [Compound 23, 3-isopropyl-6-(2-(2,3,4-trifluorophenyl)-6,7-dihydro-5H-pyrrolo[1,2-a]imidazol-3-yl)-[1,2,4]triazolo[4,3-a]pyridine] |  | 
